According to ChEMBL document CHEMBL5385876, “Discovery of unglycosylated indolocarbazoles as ROCK2 isoform-selective inhibitors for the treatment of breast cancer metastasis” (Eur J Med Chem, 2023):
Active and inactive are the calls of the source. The rule behind the calls is not given here.

Columns and labels:
[1] = Volume of distribution at terminal state in ICR mouse at 15 mg/kg, iv administered as single dose and measured for 8 hrs by LC-MS/MS analysis; assay type: ADME, organism-based; details: in vivo, read-out: Vz
SK-OV-3 [2] = assay: Inhibition of cell migration in human SK-OV-3 cells at 1.25 to 10 uM incubated for 48 hrs by scratch wound healing assay; assay type: functional, cell-based; details: dose 1.25-10 µM
SK-OV-3 [3] = assay: Inhibition of cell invasion in human SK-OV-3 cells at 1.25 to 10 uM incubated for 48 hrs by crystal violet staining based transwell assay; assay type: functional; details: dose 1.25-10 µM
[4] = molecular target: Mitogen-activated protein kinase kinase kinase 5 (Homo sapiens, UniProt Q99683); assay: Inhibition of ASK1 (unknown origin)
Mitogen-activated protein kinase kinase kinase 5, sequence (Q99683 whole entry): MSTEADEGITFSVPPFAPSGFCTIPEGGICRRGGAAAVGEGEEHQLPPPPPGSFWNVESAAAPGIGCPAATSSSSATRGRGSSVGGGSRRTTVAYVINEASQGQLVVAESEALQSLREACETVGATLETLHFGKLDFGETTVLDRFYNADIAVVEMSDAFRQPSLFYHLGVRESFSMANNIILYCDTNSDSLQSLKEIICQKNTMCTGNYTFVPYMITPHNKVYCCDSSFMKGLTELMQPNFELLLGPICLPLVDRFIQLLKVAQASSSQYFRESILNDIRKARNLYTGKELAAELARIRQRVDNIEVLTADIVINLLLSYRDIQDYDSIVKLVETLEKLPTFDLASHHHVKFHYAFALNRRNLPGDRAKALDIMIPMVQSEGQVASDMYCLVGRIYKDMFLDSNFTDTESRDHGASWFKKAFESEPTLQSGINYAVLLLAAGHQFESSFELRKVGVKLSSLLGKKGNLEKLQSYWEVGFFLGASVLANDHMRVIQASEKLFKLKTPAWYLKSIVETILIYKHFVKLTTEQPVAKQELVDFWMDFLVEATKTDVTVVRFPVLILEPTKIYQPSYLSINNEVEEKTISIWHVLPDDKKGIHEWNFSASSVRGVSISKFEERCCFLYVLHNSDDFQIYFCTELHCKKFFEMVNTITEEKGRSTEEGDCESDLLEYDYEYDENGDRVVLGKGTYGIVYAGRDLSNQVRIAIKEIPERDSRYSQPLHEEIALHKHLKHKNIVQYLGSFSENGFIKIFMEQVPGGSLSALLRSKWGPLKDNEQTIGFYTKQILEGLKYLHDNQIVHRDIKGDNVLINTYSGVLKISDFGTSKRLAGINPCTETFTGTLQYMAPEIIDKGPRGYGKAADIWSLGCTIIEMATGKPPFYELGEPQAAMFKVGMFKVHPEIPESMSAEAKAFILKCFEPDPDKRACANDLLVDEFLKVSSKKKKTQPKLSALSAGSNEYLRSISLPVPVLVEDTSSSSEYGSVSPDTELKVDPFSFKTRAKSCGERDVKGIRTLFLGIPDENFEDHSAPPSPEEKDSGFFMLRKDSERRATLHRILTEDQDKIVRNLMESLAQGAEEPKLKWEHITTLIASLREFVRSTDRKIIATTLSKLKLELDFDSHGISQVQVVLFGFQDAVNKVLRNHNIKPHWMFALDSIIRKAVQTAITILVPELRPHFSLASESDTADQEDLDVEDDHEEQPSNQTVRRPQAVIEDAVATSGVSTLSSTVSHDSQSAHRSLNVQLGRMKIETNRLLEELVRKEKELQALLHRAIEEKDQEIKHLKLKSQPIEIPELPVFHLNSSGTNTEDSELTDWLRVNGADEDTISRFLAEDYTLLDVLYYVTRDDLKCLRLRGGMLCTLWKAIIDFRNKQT

[5] = molecular target: Inhibitor of nuclear factor kappa-B kinase subunit beta (Homo sapiens, UniProt O14920); assay: Inhibition of IKKbeta (unknown origin)
[6] = Cmax in ICR mouse at 15 mg/kg, iv administered as single dose and measured for 8 hrs by LC-MS/MS analysis; assay type: ADME, organism-based; set-up: time 8 hrs, dose 15 mg/kg, route iv; details: in vivo
MDA-MB-231 [7] = assay: Antiproliferative activity against human MDA-MB-231 cells assessed as suppression of cell growth incubated for 72 hrs by SRB assay; assay type: functional, cell-based; details: MDA-MB-231, 72 h
[8] = Selectivity index, ratio of IC50 for ROCK2 (unknown origin) to IC50 for N-terminal His10-StrepII tagged human ROCK2 catalytic domain (1 to 553 residues) expressed in Sf9 insect cells
[9] = molecular target: Rho-associated protein kinase 2 (Homo sapiens, UniProt O75116); assay: Inhibition of N-terminal His10-StrepII tagged human ROCK2 catalytic domain (1 to 553 residues) expressed in Sf9 insect cells by HTRF assay
Rho-associated protein kinase 2, sequence (O75116 whole entry, the tested form may be a part): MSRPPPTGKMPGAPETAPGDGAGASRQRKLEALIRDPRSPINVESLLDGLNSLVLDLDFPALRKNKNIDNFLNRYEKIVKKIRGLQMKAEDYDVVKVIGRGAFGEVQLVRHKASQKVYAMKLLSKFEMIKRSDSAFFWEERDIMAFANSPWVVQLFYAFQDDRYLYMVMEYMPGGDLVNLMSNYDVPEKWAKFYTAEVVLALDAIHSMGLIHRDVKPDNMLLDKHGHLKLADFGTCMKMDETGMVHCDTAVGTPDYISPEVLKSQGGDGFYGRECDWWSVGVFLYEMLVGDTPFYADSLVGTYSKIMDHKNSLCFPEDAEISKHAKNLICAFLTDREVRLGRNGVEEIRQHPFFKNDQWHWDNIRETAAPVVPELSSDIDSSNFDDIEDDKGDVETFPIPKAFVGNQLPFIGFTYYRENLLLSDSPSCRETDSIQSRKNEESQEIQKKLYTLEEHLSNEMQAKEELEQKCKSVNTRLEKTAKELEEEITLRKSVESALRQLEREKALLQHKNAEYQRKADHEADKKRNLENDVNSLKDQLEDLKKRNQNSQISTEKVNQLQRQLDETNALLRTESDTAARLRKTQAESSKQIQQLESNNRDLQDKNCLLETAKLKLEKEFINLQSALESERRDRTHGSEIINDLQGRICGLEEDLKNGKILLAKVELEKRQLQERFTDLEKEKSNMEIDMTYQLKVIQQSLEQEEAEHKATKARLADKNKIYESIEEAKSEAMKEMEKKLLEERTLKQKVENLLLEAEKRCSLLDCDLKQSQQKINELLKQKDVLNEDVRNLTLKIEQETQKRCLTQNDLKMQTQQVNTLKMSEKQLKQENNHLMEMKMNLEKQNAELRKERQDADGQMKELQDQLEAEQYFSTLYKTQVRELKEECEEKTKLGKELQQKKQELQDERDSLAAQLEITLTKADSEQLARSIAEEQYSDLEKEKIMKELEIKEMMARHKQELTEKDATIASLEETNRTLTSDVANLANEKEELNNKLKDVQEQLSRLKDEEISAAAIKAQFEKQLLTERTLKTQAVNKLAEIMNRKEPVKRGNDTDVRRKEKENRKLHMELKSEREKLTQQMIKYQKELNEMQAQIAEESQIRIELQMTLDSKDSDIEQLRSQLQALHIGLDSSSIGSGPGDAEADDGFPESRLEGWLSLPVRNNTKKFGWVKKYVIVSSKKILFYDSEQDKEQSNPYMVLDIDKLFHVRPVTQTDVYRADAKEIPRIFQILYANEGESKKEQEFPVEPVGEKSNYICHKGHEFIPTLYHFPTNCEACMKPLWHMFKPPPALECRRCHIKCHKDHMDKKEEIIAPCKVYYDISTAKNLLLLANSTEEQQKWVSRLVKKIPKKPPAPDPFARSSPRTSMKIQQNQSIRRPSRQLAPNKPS

[10] = system: Rho-associated protein kinase 2 (Homo sapiens), O75116 [E140A]; assay: Binding affinity to N-terminal His10-StrepII tagged human ROCK2 E140A mutant catalytic domain (1 to 553 residues) expressed in Sf9 insect cells assessed as change in melting temperature at 50 uM by SYPRO orange dye based thermal shift assay
Rho-associated protein kinase 2 (Homo sapiens), O75116 [E140A], sequence (O75116 whole entry E140A, the tested form may be a part): as the sequence (O75116 whole entry, the tested form may be a part) above, with E140A counted along it

[11] = molecular target: Ribosomal protein S6 kinase alpha-6 (Homo sapiens) (UniProt Q9UK32); assay: Inhibition of human recombinant RSK4 at 125 nM
[12] = molecular target: Serine/threonine-protein kinase pim-1 (Homo sapiens, UniProt P11309); assay: Inhibition of PIM1 (unknown origin)
Serine/threonine-protein kinase pim-1, sequence (P11309 whole entry): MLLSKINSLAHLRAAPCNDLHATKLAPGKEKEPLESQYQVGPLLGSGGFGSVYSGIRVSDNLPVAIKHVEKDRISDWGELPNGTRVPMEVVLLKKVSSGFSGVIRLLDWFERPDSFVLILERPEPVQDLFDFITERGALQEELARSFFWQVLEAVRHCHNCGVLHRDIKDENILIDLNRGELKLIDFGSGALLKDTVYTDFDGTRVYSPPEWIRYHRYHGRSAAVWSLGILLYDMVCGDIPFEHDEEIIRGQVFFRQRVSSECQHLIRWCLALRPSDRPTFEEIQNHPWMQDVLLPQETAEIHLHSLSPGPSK

MDA-MB-231 [13] = assay: Antimetastatic activity in human MDA-MB-231 cells assessed as effect on cell shapes at 5 uM incubated for 24 hrs by SEM analysis; assay type: functional, cell-based
MDA-MB-231 [14] = assay: Downregulation of phosphorylated STAT2 protein expression in human MDA-MB-231 cells at 0.5 uM incubated for 24 hrs by Western blot analysis; assay type: functional, cell-based
[15] = molecular target: Signal transducer and activator of transcription 3 (Homo sapiens) (UniProt P40763); assay: Inhibition of STAT3 transcriptional activity in human MDA-MB-231 cells assessed as reduction in MMP2 mRNA level at 5 uM incubated for 24 hrs by qRT-PCR analysis; assay type: cell-based
Signal transducer and activator of transcription 3 (Homo sapiens), sequence (P40763 whole entry): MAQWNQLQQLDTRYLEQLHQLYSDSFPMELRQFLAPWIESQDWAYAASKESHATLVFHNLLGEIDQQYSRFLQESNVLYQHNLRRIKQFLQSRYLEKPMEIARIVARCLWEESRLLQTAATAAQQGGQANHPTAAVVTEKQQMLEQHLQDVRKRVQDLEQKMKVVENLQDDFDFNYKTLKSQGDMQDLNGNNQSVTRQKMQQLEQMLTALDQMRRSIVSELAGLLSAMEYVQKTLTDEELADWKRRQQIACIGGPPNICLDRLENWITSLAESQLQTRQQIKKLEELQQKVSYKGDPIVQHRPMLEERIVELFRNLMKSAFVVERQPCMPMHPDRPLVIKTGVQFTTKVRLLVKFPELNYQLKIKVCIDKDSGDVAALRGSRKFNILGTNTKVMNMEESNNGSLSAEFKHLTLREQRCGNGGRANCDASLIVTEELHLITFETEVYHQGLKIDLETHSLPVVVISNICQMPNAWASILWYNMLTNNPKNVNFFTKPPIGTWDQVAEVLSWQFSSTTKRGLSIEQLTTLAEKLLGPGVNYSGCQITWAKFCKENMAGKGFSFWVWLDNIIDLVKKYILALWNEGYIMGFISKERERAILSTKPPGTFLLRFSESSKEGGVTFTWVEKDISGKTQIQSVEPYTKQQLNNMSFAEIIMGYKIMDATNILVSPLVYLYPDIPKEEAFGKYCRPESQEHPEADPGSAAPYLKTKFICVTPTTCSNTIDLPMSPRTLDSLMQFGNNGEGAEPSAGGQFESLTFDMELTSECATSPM

[16] = AUC (0 to infinity) in ICR mouse at 15 mg/kg, iv administered as single dose and measured for 8 hrs by LC-MS/MS analysis; assay type: ADME, organism-based; set-up: time 8 hrs, dose 15 mg/kg, route iv; details: in vivo
[17] = molecular target: 3-phosphoinositide-dependent protein kinase 1 (Homo sapiens) (UniProt O15530); assay: Inhibition of human recombinant PDK1 at 125 nM
3-phosphoinositide-dependent protein kinase 1 (Homo sapiens), sequence (O15530 whole entry, looked up): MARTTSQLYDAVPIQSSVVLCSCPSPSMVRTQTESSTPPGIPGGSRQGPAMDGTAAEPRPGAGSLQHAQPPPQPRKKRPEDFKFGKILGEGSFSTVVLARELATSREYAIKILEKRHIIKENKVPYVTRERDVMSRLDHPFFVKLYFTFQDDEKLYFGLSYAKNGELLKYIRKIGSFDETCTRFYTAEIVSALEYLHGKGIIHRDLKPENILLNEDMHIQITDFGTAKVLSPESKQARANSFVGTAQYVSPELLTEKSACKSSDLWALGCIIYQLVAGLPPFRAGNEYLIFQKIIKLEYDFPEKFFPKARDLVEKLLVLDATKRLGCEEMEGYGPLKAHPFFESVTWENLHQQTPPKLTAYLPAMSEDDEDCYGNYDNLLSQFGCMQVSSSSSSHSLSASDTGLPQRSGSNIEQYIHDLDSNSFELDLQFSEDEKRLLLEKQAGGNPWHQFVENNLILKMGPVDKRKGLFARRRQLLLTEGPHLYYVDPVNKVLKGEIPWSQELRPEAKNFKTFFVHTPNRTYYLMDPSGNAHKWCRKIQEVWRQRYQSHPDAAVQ

[18] = molecular target: Serine/threonine-protein kinase PLK1 (Homo sapiens, UniProt P53350); assay: Inhibition of PLK1 (unknown origin)
Serine/threonine-protein kinase PLK1, sequence (P53350 whole entry): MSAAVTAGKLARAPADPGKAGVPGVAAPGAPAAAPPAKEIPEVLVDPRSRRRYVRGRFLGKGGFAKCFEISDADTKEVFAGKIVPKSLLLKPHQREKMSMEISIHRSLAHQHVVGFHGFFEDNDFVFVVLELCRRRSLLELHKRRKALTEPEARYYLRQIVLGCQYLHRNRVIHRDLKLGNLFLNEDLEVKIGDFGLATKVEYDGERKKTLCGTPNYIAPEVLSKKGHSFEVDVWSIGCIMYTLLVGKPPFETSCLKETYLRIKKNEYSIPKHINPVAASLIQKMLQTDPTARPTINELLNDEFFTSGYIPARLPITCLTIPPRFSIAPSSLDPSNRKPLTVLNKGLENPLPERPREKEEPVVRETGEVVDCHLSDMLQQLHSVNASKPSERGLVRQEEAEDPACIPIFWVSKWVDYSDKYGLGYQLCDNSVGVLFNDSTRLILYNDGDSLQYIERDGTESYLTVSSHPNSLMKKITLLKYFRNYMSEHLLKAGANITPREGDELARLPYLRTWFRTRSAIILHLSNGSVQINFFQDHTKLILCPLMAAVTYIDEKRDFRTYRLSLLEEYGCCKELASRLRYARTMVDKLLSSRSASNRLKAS

[19] = MRT (0 to infinity) in ICR mouse at 15 mg/kg, iv administered as single dose and measured for 8 hrs by LC-MS/MS analysis; assay type: ADME, organism-based; details: in vivo

Vd [1]: 4.87 L/kg
IC50 [4]: 944 nM
IC50 [5]: 139 nM
Cmax [6]: 21600 ng/mL
IC50 (MDA-MB-231 [7]): 7190 nM
IC50 [9]: 6 nM
Activity [10]: inactive
inhibition [11]: Active
IC50 [12]: 308 nM
inhibition [15]: Active
AUC(0-inf) [16]: 6250 ng·h/mL
inhibition [17]: Active
IC50 [18]: > 10000 nM
MRT inf [19]: 10.8 min
Structure (SMILES): O=C1NCc2c1c1c3cc(O)ccc3[nH]c1c1[nH]c3ccccc3c21
inhibition (SK-OV-3 [2]): Active
inhibition (SK-OV-3 [3]): Active
Ratio IC50 [8]: > 100
Activity (MDA-MB-231 [13]): Active
Activity (MDA-MB-231 [14]): Active
